Measurements: patent US8134015B2, “Compound inhibiting in vivo phosphorous transport and medicine containing the same” (Kyowa Hakko Kirin Co., Ltd., priority 2003, dated 2012)

These compounds were tested against T1, rat NaPi-2b (Rattus norvegicus, UniProt Q9JJ09) (assay: Sodium-dependent phosphate uptake of Xenopus oocytes which expressed NaPi-2b (32P)). Details: Xenopus oocytes expressing rat NaPi-2b, 32P radioactive phosphorus; read-out: IC50 (phosphate uptake inhibitory activity).
T1 construct: expressed in transfected cells; host or cells: Xenopus oocytes injected with cRNA
T1 sequence (Q9JJ09 1-695): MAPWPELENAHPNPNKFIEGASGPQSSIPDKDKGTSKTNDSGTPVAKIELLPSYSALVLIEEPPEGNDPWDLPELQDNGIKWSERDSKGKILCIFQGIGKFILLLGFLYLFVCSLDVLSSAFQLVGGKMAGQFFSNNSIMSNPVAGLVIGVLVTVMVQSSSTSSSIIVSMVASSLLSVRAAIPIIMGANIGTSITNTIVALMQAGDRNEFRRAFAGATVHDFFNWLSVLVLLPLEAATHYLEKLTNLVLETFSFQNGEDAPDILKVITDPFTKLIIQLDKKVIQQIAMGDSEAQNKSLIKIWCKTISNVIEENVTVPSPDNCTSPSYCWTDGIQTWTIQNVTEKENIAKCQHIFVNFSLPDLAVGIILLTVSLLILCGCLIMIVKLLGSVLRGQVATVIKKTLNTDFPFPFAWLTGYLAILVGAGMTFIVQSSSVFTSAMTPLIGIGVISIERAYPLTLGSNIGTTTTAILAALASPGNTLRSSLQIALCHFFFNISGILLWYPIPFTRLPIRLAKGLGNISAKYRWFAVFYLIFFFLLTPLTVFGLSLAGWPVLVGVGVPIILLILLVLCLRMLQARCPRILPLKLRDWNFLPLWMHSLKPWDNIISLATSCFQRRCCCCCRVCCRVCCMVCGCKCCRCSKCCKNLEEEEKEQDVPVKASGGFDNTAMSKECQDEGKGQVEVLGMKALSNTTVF
Assay type: cell-based
Summary of the method: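 Read-out is 32P phosphate uptake into Xenopus oocytes expressing rat intestinal NaPi-2b (cRNA injection, 2-day culture). Inhibition at 300 μM and 100 μM was derived from a single inhibition curve and given as percent.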

SMILES	IC50 [nM]
O=C(Nc1ccc(Br)cc1C(=O)N/N=C/c1ccc(F)cc1)c1ccc(CSCCCO)cc1 [Compound 276, N-[4-Bromo-2-(4-fluoro-benzylidene-hydrazinocarbonyl)-phenyl]-4-(3-hydroxy-propylsulfanylmethyl)-benzamide]	6200
O=C(Nc1ccc(Br)cc1C(=O)N/N=C/c1ccc(Cl)c(C(F)(F)F)c1)c1ccc(CSCCCO)cc1 [Compound 278, N-[4-Bromo-2-(4-chloro-3-trifluoromethyl-benzylidene-hydrazinocarbonyl)-phenyl]-4-(3-hydroxy-propylsulfanylmethyl)-benzamide]	160
CCN(CC)CCN(C)Cc1ccc(C(=O)Nc2ccc(Br)cc2C(=O)N/N=C/c2ccc(C)c(C)c2)cc1 [Compound 280, N-[4-Bromo-2-(3,4-dimethyl-benzylidene-hydrazinocarbonyl)-phenyl]-4-{[(2-diethylamino-ethyl)-methyl-amino]-methyl}-benzamide]	780
Cc1ccc(/C=N/NC(=O)c2cc(Br)ccc2NC(=O)c2ccc(CNCCN3CCOCC3)cc2)cc1 [Compound 282, N-[4-Bromo-2-(4-methyl-benzylidene-hydrazinocarbonyl)-phenyl]-4-[(2-morpholin-4-yl-ethylamino)-methyl]-benzamide]	6710
Cc1cccc(/C=N/NC(=O)c2cc(Br)ccc2NC(=O)c2ccc(CNCCN3CCOCC3)cc2)c1 [Compound 283, N-[4-Bromo-2-(3-methyl-benzylidene-hydrazinocarbonyl)-phenyl]-4-[(2-morpholin-4-yl-ethylamino)-methyl]-benzamide]	22400
O=C(Nc1ccc(Br)cc1C(=O)N/N=C/c1ccc(F)cc1)c1ccc(CNCCN2CCOCC2)cc1 [Compound 284, N-[4-Bromo-2-(4-fluoro-benzylidene-hydrazinocarbonyl)-phenyl]-4-[(2-morpholin-4-yl-ethylamino)-methyl]-benzamide]	26900
CCN(CC)CCN(C)Cc1ccc(C(=O)Nc2ccc(Br)cc2C(=O)N/N=C/c2ccc(Cl)c(C(F)(F)F)c2)cc1 [Compound 289, N-[4-Bromo-2-(4-chloro-3-trifluoromethyl-benzylidene-hydrazinocarbonyl)-phenyl]-4-{[(2-diethylamino-ethyl)-methyl-amino]-methyl}-benzamide]	2890
CCN(CC)CCN(C)Cc1ccc(C(=O)Nc2ccc(Br)cc2C(=O)NN=Cc2ccc(OC)cc2)cc1 [Compound 290, N-[4-Bromo-2-(4-methoxy-benzylidene-hydrazinocarbonyl)-phenyl]-4-{[(2-diethylamino-ethyl)-methyl-amino]-methyl}-benzamide]	3250
CCN(CC)CCN(C)Cc1ccc(C(=O)Nc2ccc(Br)cc2C(=O)N/N=C/c2cccc(OC)c2)cc1 [Compound 291, N-[4-Bromo-2-(3-methoxy-benzylidene-hydrazinocarbonyl)-phenyl]-4-{[(2-diethylamino-ethyl)-methyl-amino]-methyl}-benzamide]	1160
CCN(CC)CCNCc1ccc(C(=O)Nc2ccc(Br)cc2C(=O)N/N=C/c2ccc(F)cc2)cc1 [Compound 295, N-[4-Bromo-2-(4-fluoro-benzylidene-hydrazinocarbonyl)-phenyl]-4-[(2-diethylamino-ethylamino)-methyl]-benzamide]	7580
CCN(CC)CCNCc1ccc(C(=O)Nc2ccc(Br)cc2C(=O)N/N=C/c2cccc(OC)c2)cc1 [Compound 299, N-[4-Bromo-2-(3-methoxy-benzylidene-hydrazinocarbonyl)-phenyl]-4-[(2-diethylamino-ethylamino)-methyl]-benzamide]	3910
Cc1ccc(/C=N/NC(=O)c2cc(Br)ccc2NC(=O)c2ccc(CNCCCN(CCO)CCO)cc2)cc1C [Compound 300, 4-({3-[Bis-(2-hydroxy-ethyl)-amino]-propylamino}-methyl)-N-[4-bromo-2-(3,4-dimethyl-benzylidene-hydrazinocarbonyl)-phenyl]-benzamide]	1920
O=C(Nc1ccc(Br)cc1C(=O)N/N=C/c1cccc(F)c1)c1ccc(CNCCCN(CCO)CCO)cc1 [Compound 301, 4-({3-[Bis-(2-hydroxy-ethyl)-amino]-propylamino}-methyl)-N-[4-bromo-2-(3-fluoro-benzylidene-hydrazinocarbonyl)-phenyl]-benzamide]	15200
O=C(Nc1ccc(Br)cc1C(=O)N/N=C/c1ccc(Cl)c(C(F)(F)F)c1)c1ccc(CNCCCN(CCO)CCO)cc1 [Compound 302, 4-({3-[Bis-(2-hydroxy-ethyl)-amino]-propylamino}-methyl)-N-[4-bromo-2-(4-chloro-3-trifluoromethyl-benzylidene-hydrazinocarbonyl)-phenyl]-benzamide]	1120

The next lines start with the values.

IC50 [nM]	SMILES
1600	O=C(Nc1ccc(Br)cc1C(=O)N/N=C/c1cccc(F)c1)c1ccc(CSCCCO)cc1 [Compound 277, N-[4-Bromo-2-(3-fluoro-benzylidene-hydrazinocarbonyl)-phenyl]-4-(3-hydroxy-propylsulfanylmethyl)-benzamide]
2310	Cc1ccc(/C=N/NC(=O)c2cc(Br)ccc2NC(=O)c2cccc(CNCCN3CCOCC3)c2)cc1C [Compound 279, N-[4-Bromo-2-(3,4-dimethyl-benzylidene-hydrazinocarbonyl)-phenyl]-3-[(2-morpholin-4-yl-ethylamino)-methyl]-benzamide]
4600	Cc1ccc(/C=N/NC(=O)c2cc(Br)ccc2NC(=O)c2ccc(CNCCN3CCOCC3)cc2)cc1C [Compound 281, N-[4-Bromo-2-(3,4-dimethyl-benzylidene-hydrazinocarbonyl)-phenyl]-4-[(2-morpholin-4-yl-ethylamino)-methyl]-benzamide]
570	CCN(CC)CCN(C)Cc1ccc(C(=O)Nc2ccc(Br)cc2C(=O)N/N=C/c2cccc(C)c2)cc1 [Compound 286, N-[4-Bromo-2-(3-methyl-benzylidene-hydrazinocarbonyl)-phenyl]-4-{[(2-diethylamino-ethyl)-methyl-amino]-methyl}-benzamide]
110	CCN(CC)CCN(C)Cc1ccc(C(=O)Nc2ccc(Br)cc2C(=O)NN=Cc2ccc(F)cc2)cc1 [Compound 287, N-[4-Bromo-2-(4-fluoro-benzylidene-hydrazinocarbonyl)-phenyl]-4-{[(2-diethylamino-ethyl)-methyl-amino]-methyl}-benzamide]
1310	CCN(CC)CCN(C)Cc1ccc(C(=O)Nc2ccc(Br)cc2C(=O)N/N=C/c2cccc(F)c2)cc1 [Compound 288, N-[4-Bromo-2-(3-fluoro-benzylidene-hydrazinocarbonyl)-phenyl]-4-{[(2-diethylamino-ethyl)-methyl-amino]-methyl}-benzamide]
3500	CCN(CC)CCNCc1ccc(C(=O)Nc2ccc(Br)cc2C(=O)N/N=C/c2ccc(C)c(C)c2)cc1 [Compound 292, N-[4-Bromo-2-(3,4-dimethyl-benzylidene-hydrazinocarbonyl)-phenyl]-4-[(2-diethylamino-ethylamino)-methyl]-benzamide]
5590	CCN(CC)CCNCc1ccc(C(=O)Nc2ccc(Br)cc2C(=O)N/N=C/c2ccc(C)cc2)cc1 [Compound 293, N-[4-Bromo-2-(4-methyl-benzylidene-hydrazinocarbonyl)-phenyl]-4-[(2-diethylamino-ethylamino)-methyl]-benzamide]
7800	CCN(CC)CCNCc1ccc(C(=O)Nc2ccc(Br)cc2C(=O)N/N=C/c2cccc(C)c2)cc1 [Compound 294, N-[4-Bromo-2-(3-methyl-benzylidene-hydrazinocarbonyl)-phenyl]-4-[(2-diethylamino-ethylamino)-methyl]-benzamide]
1450	CCN(CC)CCNCc1ccc(C(=O)Nc2ccc(Br)cc2C(=O)N/N=C/c2cccc(F)c2)cc1 [Compound 296, N-[4-Bromo-2-(3-fluoro-benzylidene-hydrazinocarbonyl)-phenyl]-4-[(2-diethylamino-ethylamino)-methyl]-benzamide]
960	CCN(CC)CCNCc1ccc(C(=O)Nc2ccc(Br)cc2C(=O)N/N=C/c2ccc(Cl)c(C(F)(F)F)c2)cc1 [Compound 297, N-[4-Bromo-2-(4-chloro-3-trifluoromethyl-benzylidene-hydrazinocarbonyl)-phenyl]-4-[(2-diethylamino-ethylamino)-methyl]-benzamide]
9220	CCN(CC)CCNCc1ccc(C(=O)Nc2ccc(Br)cc2C(=O)N/N=C/c2ccc(OC)cc2)cc1 [Compound 298, N-[4-Bromo-2-(4-methoxy-benzylidene-hydrazinocarbonyl)-phenyl]-4-[(2-diethylamino-ethylamino)-methyl]-benzamide]
1130	Cc1ccc(/C=N/NC(=O)c2cc(Br)ccc2NC(=O)c2ccc(CN(CC(C)O)CC(C)O)cc2)cc1C (stereo not drawn) [Compound 303, 4-{[Bis-(2-hydroxy-propyl)-amino]-methyl}-N-[4-bromo-2-(3,4-dimethyl-benzylidene-hydrazinocarbonyl)-phenyl]-benzamide]
